Assay results: patent US8110582B2, “Prophylactic treatment of UV-induced epidermal neoplasia” (3M Innovative Properties Company, priority 2003, dated 2012)

Key:
[1] = test system: UV-induced squamous cell carcinoma (SCC), actinic keratosis (AK), or pre-AK lesions; test: UV-induced epidermal neoplasia in SKH-1 mice, Example 1 (UV and IRM dosing initiated simultaneously, 15 weeks); type: in vivo; details: 0.1% formulation in Vehicle 1, topical twice per week, UV five days per week for 15 weeks
From the text: (§1) Female SKH-1 mice 9-10 weeks old were obtained from Charles River (Raleigh, N.C.) and housed in a room with controlled temperatures and humidity and alternating 12-hour light and dark cycles. The room is lit with fluorescent lights covered by yellow sleeves from EncapSulite International, Inc. (Rosenberg, Tex.) to eliminate all ambient UV radiation. The mice were fed with a 12% Corn Oil Purified Diet from Purina Test Diet (Richmond, Va.) and water, ad libitum. […]
(§2) Mice were placed in a standard plexiglass rat cage, 9-10 at a time, that was separated into 12 individual compartments with plexiglass dividers and placed on a shelf 14 inches below the light source without wire cage tops. […] The lights emit UVB (21%) and UVA (79%) light with a peak wavelength of 313 nm, as measured using a radiometer Model PMA 2200 from Solar Light Company (Philadelphia, Pa.) with a PMA 2101 detector for UVB and PMA2110 detector for UVA.
(§3) The dose of UVB irradiation was measured by MED (minimal erythemal dose). […]
(§4) All mice were distinguished from one another by a tattoo placed on the tail. The development and appearance of tumors were noted weekly and recorded starting at about 14-18 weeks. […]

[2] = test system: UV-induced squamous cell carcinoma (SCC), actinic keratosis (AK), or pre-AK lesions; test: UV-induced epidermal neoplasia in SKH-1 mice, Example 3 (simultaneous initiation, 18 weeks); type: in vivo; details: for % Disease: topical twice per week, UV five days per week for 18 weeks; for Avg. Disease Score: twice per week, UV 18 weeks, SCC + AK + pre-AK lesion score (Table 5)
From the text: Female SKH-1 mice 9-10 weeks old were obtained from Charles River (Raleigh, N.C.) and housed in a room with controlled temperatures and humidity and alternating 12-hour light and dark cycles. The room is lit with fluorescent lights covered by yellow sleeves from EncapSulite International, Inc. (Rosenberg, Tex.) to eliminate all ambient UV radiation. The mice were fed with a 12% Corn Oil Purified Diet from Purina Test Diet (Richmond, Va.) and water, ad libitum. The animals were maintained in facilities approved by the Association for the Assessment and Accreditation of Laboratory Animal Care International and in accordance with current United States Department of Agriculture, Department of Health and Human Services, and National Institutes of Health regulations and standards.
A small group of mice were not exposed to UV and were used as negative controls. The other mice were chronically UV irradiated. After randomization the mice were lightly anesthetized with halothane and adjustable collars made of hook and loop fastener approximately 10 mm wide and 70 mm long were placed around the mouse's neck to prevent oral ingestion of the IRM. Unless otherwise indicated, thirty minutes before UV exposure mice were topically dosed with 30 μL of either (1) vehicle formulation, (2) IRM formulation, or (3) an SPF 30 sunscreen (NEUTROGENA SPF30 Sunblock with PARSOL 1789), two times per week for a total of 15-18 weeks on the dorsal surface in an area approximately 6 cm^2. Approximately four hours after dosing, the topical treatment (i.e, vehicle formulation; IRM formulation, or sunscreen) was washed off using a dilute soap solution.
Mice were placed in a standard plexiglass rat cage, 9-10 at a time, that was separated into 12 individual compartments with plexiglass dividers and placed on a shelf 14 inches below the light source without wire cage tops. The mice were exposed to UV radiation 5 times per week (Monday thru Friday) for an average of 15-18 weeks. The UV radiation was provided by a bank of six FS40 lamps (National Biological Corporation, Twinsburg, Ohio), filtered by a Kodacel filter (140 μm thick K6808 cellulose triacetate film; Eastman Kodak, Rochester, N.Y.) that transmits radiation having a wavelength from about 293 nm to about 400 nm. The Kodacel filter was aged 4-6 hours before use. The lights emit UVB (21%) and UVA (79%) light with a peak wavelength of 313 nm, as measured using a radiometer Model PMA 2200 from Solar Light Company (Philadelphia, Pa.) with a PMA 2101 detector for UVB and PMA2110 detector for UVA.
The dose of UVB irradiation was measured by MED (minimal erythemal dose). By using MED, a relatively constant incident dose of UV was maintained over time. The initial dose of UVB to the mice was 12.6 mJ/cm^2 (0.6 MED) and the average total dose of UVB was 3000-5200 mJ/cm^2. An increase of 10-20% of the MED dose per week was needed due to acclimation of the mice.
All mice were distinguished from one another by a tattoo placed on the tail. The development and appearance of tumors were noted weekly and recorded starting at about 14-18 weeks.
Formulations of IRM1 and IRM2 were prepared using Vehicle 1. UV dosing and IRM dosing were initiated simultaneously. UV dosing was performed five days per week for 18 weeks.
After 18 weeks, the mice were subjected to gross inspection to determine the presence of a disease state, i.e., squamous cell carcinoma (SCC), actinic keratosis (AK), or pre-AK lesions.
The disease state of each mouse was scored by measuring the size and/or number of lesions present on the mouse. SCC lesions and AK lesions of at least 1 mm in diameter were given a score of 1.
The SCC lesion score, AK lesion score, and the pre-AK lesion score (according to Table 5) were added to provide a total disease score for each mouse. Table 6 includes the average disease score for all of the mice in each treatment group.

[3] = test system: UV-induced squamous cell carcinoma (SCC), actinic keratosis (AK), or pre-AK lesions; test: UV-induced epidermal neoplasia in SKH-1 mice, Example 2 (UV dosing six weeks before IRM dosing, 15 weeks); type: in vivo; details: topical twice per week, UV for six weeks before IRM dosing, UV five days per week for 15 weeks
From the text: as §1, §2, §3, §4

[4] = test system: actinic keratosis (AK) lesions; test: Clinical treatment of actinic keratosis lesions and recurrence at follow-up, Example 5; type: in vivo
Experimental: Subjects with four to eight clinically typical, visible, discrete actinic keratosis (AK) lesions in a 25 cm^2 treatment area were randomized in a 1:1 ratio to receive either a 5% cream formulation of IRM14 (ALDARA, 3M Company, St. Paul, Minn.) or vehicle cream once daily three days per week. Subjects received treatment for sixteen weeks even if clinical evidence of lesion clearance was observed. Subjects were evaluated at an Evaluation visit eight weeks after the treatment period concluded.
Subjects were instructed to administer a single application of cream (vehicle or IRM14, as assigned) to the treatment area at approximately the same time of day three days per week. The subjects were instructed to wash the treatment area prior to applying the cream, rub the cream into the treatment area, and then leave the cream in place for at least eight hours without occlusion.
Subjects with no (zero) clinically visible AK lesions in the 25 cm^2 treatment area at the Evaluation visit were considered complete responders. 117 of 242 (48.3%) subjects receiving IRM14 were complete responders; 18 of 250 (7.2%) vehicle-treated subjects were complete responders.
Complete responders were re-evaluated for recurrence of AK lesions at a Follow-up visit between 12 and 18 months after the Evaluation visit. Subjects received no IRM14 treatment between the Evaluation visit and the Follow-up visit. […]

cytokines = test: Induction of production and secretion of cytokines

SMILES | % Disease (percentage of mice exhibiting a disease state) [1] [%] | % Disease ([2]; 0.01% formulation) [%] | Avg. Disease Score ([2]; 0.01% formulation) | % Disease ([2]; 0.1% formulation) [%] | Avg. Disease Score ([2]; 0.1% formulation) | % Disease ([3]; 0.1% formulation) [%] | % Disease ([3]; 1.0% formulation) [%] | complete responders (no clinically visible AK lesions in the 25 cm^2 treatment area at the Evaluation visit) ([4]; 5% cream once daily three days per week for sixteen weeks, evaluated eight weeks after treatment, 117 of 242 subjects) [%] | AK Recurrence Rate ([4]; complete responders at Follow-up visit 12 to 18 months after Evaluation visit, no treatment in between, 77 IRM14-treated) [%] | induction of production and secretion of cytokines (cytokines)
CC(C)Cn1cnc2c(N)nc3cccnc3c21 [IRM1, 1-(2-methylpropyl)-1H-imidazo[4,5-c][1,5]naphthyridin-4-amine] | 0 | 71 | 2.86 ± 0.82 | 50 | 0.66 ± 0.33 | – | – | – | – | –
Cc1nc2c(N)nc3cccnc3c2n1CC(C)C [IRM2, 2-methyl-1-(2-methylpropyl)-1H-imidazo[4,5-c][1,5]naphthyridin-4-amine] | 11 | 71 | 4.86 ± 1.81 | 25 | 0.6 ± 0.42 | 63 | 50 | – | – | –
CC(C)Cn1cnc2c(N)nc3ccccc3c21 [IRM14, 1-(2-methylpropyl)-1H-imidazo[4,5-c]quinolin-4-amine] | – | – | – | – | – | – | – | 48.3 | 24.7 | –
CC(C)Cn1cnc2c(=O)[nH]c3ccccc3c21 [non-IRM, 1,5-dihydro-1-(2-methylpropyl)-4H-imidazo[4,5-c]quinolin-4-one] | – | – | – | – | – | – | – | – | – | does not induce the production and secretion of cytokines
